Experimental findings from patent US11866405B2, “Substituted indazoles as IRAK4 inhibitors” (AstraZeneca AB, priority 2020, dated 2024) are described below.

Assay [1] deals with human recombinant IRAK4 protein (Homo sapiens (Human), UniProt Q9NWZ3). The assay can be described thus: IRAK4 enzyme assay (mass spectrometry readout). In kind it is biochemical. Conditions: 3 mM ATP, 0.2 nM enzyme; geometric mean of at least n=2, * single experiment. A digest of the protocol: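 0.2 nM IRAK4 preincubated 15 min at room temperature with compound (10-point half-log series, top 1 μM or 10 μM) in pH 7.4 Tris buffer with 3 mM ATP; 10 μM peptide substrate added, 2 h at room temperature, formic acid stop. Phospho/unphospho peptide ratio by LC-MS/MS; potency from curve fit, geometric mean of n≥2 or single run.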

The test system of assay [2] is IL-1β stimulated IL-8 release in hTHP1 cells. Kind of assay: IL-1β-induced IL-8 release in human THP-1 monocyte cell line. To be noted: THP-1 cells, IL-1β 1.8 ng/mL. In kind it is cell-based. The protocol:
Effect of IRAK4 Inhibitors on IL-1β-Induced Cytokine Release in Human THP-1 Monocyte Cell Line
THP-1 cells were cultured in RPMI 1640 (Gibco 72400-021) containing 10% FBS (Gibco 10270-106), 1 mM Na-pyruvate (Gibco 11360-070) and 100 U/mL Penicillin-Streptomycin (Gibco 15140-122). Cells were plated at 5×10^4 cells per well in 384 well Echo certified plates (Labcyte PPT-0200) to which compounds had been added at various concentrations (10 point half log dose response with a final top concentration of 10 μM) using an Echo 655 (Labcyte Inc). The plate was incubated for 1 h at 37° C., then recombinant […] (R&D Systems 201-LB-025/CF) was added to a final concentration of 1.8 ng/mL. The plates were incubated at 37° C. for 18h. The plates were centrifuged at 250×g for four minutes, then 1.6 μL of the cell supernatant was transferred to a white low volume 384 well plate (Greiner #784075) using acoustic dispensing on an Echo 655. Next, 200 nL of acceptor bead (5 mg/mL) and biotinylated anti-IL-8 antibody (500 nM) was added using acoustic dispensing (beads and antibody were from a PerkinElmer 18 Alpha LISA detection kit, AL224C). The plate was sealed, briefly centrifuged, then incubated at room temperature for 1 h. Afterwards, 200 nL of donor bead solution (5 mg/mL) was added, the plate sealed and briefly centrifuged, then incubated for 1 h before being read on an Envision plate reader to allow determination the concentration of IRAK4 inhibitor required to effect a 50% reduction in the amount of IL-8 released following IL-1β stimulation in THP1 cells (Table 2). The quantified data were analysed in Genedata Screener 15 (Genedata AG). Data presented are the geometric mean of at least n=2, or as denoted by an * are obtained from a single experiment.

In assay [3] the target is IRAK4 auto-phosphorylation (Homo sapiens (Human), UniProt Q9NWZ3). Kind of assay: IRAK4 phosphorylation cell assay in IL-1β-stimulated Karpas-299 cells. In kind it is cell-based. Conditions: IL-1β 22.7 ng/mL, pIRAK4 (Thr345/Ser346), geometric mean of at least 2 experiments. A digest of the protocol: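 Karpas-299 cells were preincubated 1 h at 37 °C with compound (10-point half-log series, top 30 μM), then stimulated 10 min with 22.7 ng/mL IL-1β. Cells were fixed and stained for pIRAK4 (Thr345/Ser346), and per-cell fluorescence was quantified by high-content imaging. IC50 values are geometric means of at least 2 experiments.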

Setting [4] is: Homo sapiens, THP-1, 18 h, geometric mean of at least n=2, * n = 1, read-out: hTHP1, IL1β stim, IL8 release red. IC50.
The mark [5] stands for this setting: 18 h, geometric mean of at least n=2, * n = 1, read-out: hTHP1, IL1β stim, IL8 release red. IC50.

Like-named read-outs stand apart in the source and are kept apart here.

IRAK4 auto-phosphorylation, sequence (Q9NWZ3 whole entry): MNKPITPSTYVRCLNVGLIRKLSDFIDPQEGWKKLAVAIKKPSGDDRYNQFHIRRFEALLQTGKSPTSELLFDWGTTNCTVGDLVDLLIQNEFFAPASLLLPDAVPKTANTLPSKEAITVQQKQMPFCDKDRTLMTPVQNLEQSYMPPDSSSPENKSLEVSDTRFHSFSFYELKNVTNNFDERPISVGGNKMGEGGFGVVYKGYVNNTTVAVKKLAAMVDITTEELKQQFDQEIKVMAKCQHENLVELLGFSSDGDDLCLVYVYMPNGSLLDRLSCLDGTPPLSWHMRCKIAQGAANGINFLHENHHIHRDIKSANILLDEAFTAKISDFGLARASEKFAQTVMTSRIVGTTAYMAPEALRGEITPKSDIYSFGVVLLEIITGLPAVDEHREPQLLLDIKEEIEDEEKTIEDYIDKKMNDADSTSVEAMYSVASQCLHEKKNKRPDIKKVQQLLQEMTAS
human recombinant IRAK4 protein, sequence (Q9NWZ3 whole entry): as above

A word on the IC50: it is the point on the concentration scale where inhibition reaches its midpoint. For `COc1cc2nn([C@H]3CC[C@H](O)[C@@H](C)C3)cc2cc1C(=O)Nc1cnc2cccnn12` (single isomer, unassigned) [Example 80], the IC50 was found to be 1.5 nM in assay [1], 70 nM in assay [2] (setting [4]) and 28 nM in assay [3].
As to `COc1cc2nn([C@H]3CC[C@@H](O)CC3)cc2cc1C(=O)Nc1cnc2cccnn12` [Example 7, 2-((1s,4s)-4-Hydroxycyclohexyl)-N-(imidazo[1,2-b]pyridazin-3-yl)-6-methoxy-2H-indazole-5-carboxamide], the IC50 is 6 nM in assay [1], 48 nM in assay [2] (setting [5]) and 111 nM in assay [3].
For the compound `COc1cc2nn([C@H]3CC[C@H](O)CC3)cc2cc1C(=O)Nc1cnc2cccnn12` [Example 8, 2-((1r,4r)-4-Hydroxycyclohexyl)-N-(imidazo[1,2-b]pyridazin-3-yl)-6-methoxy-2H-indazole-5-carboxamide], the IC50 in assay [1] turned out to be 2.8 nM; in assay [2] (setting [5]) it was 50 nM; in assay [3], 58 nM.
With `O=C(Nc1cnn2cccnc12)c1cc2cn([C@@H]3CCC[C@H](O)C3)nc2cc1OC1CC1` [Example 17, 6-cyclopropoxy-2-((1R,3S)-3-hydroxycyclohexyl)-N-(pyrazolo[1,5-a]pyrimidin-3-yl)-2H-indazole-5-carboxamide], the values for the IC50 in assay [1], in assay [2] (setting [4]) and in assay [3] were 1 nM, 24 nM and 50 nM, respectively.
With `O=C(Nc1cnn2cccnc12)c1cc2cn([C@H]3CCC[C@@H](O)C3)nc2cc1OC1CC1` [Example 18], the IC50 in assay [1] was less than 0.6 nM; in assay [2] (setting [5]) it was 21 nM; in assay [3], 19 nM.
Turning to `COc1cc2nn(C3CCC4(CC3)CN(C(C)=O)C4)cc2cc1C(=O)Nc1cnc2cccnn12` [Example 21, 2-(2-Acetyl-2-azaspiro[3.5]nonan-7-yl)-N-(imidazo[1,2-b]pyridazin-3-yl)-6-methoxy-2H-indazole-5-carboxamide], the half-maximal inhibitory concentration (IC50) stood at 0.7 nM in assay [1], 17 nM in assay [2] (setting [4]) and 36 nM in assay [3].
On the same counts, the results for `COc1cc2nn([C@H]3CC[C@H](N(C)C(C)=O)CC3)cc2cc1C(=O)Nc1cnc2cccnn12` [Example 23, N-(Imidazo[1,2-b]pyridazin-3-yl)-6-methoxy-2-((1r,4r)-4-(N-methylacetamido)cyclohexyl)-2H-indazole-5-carboxamide] are 0.2 nM, 7 nM and 5 nM.
In the case of `COc1cc2nn([C@H]3CC[C@H](N(C)C(C)=O)CC3)cc2cc1C(=O)Nc1cnn2cnccc12` [Example 25, 6-Methoxy-2-((1r,4r)-4-(N-methylacetamido)cyclohexyl)-N-(pyrazolo[1,5-c]pyrimidin-3-yl)-2H-indazole-5-carboxamide], the values for the IC50 in assay [1], in assay [2] (setting [5]) and in assay [3] were 1.4 nM, 23 nM and 19 nM, respectively.
Consider `O=C(Nc1cnn2cccnc12)c1cc2cn([C@H]3CC[C@H](O)CC3)nc2cc1OC1CC1` [Example 57, 6-Cyclopropoxy-2-((1r,4r)-4-hydroxycyclohexyl)-N-(pyrazolo[1,5-a]pyrimidin-3-yl)-2H-indazole-5-carboxamide], for which the results for the IC50 in assay [1], in assay [2] (setting [4]) and in assay [3] were 0.8 nM, 35 nM and 60 nM, respectively.
The like results for `COc1cc2nn([C@H]3CC[C@@]4(CC3)CC(=O)N(C)C4)cc2cc1C(=O)Nc1cnc2cccnn12` [Example 68, N-(Imidazo[1,2-b]pyridazin-3-yl)-6-methoxy-2-((5s,8s)-2-methyl-3-oxo-2-azaspiro[4.5]decan-8-yl)-2H-indazole-5-carboxamide] were, in that order, 1.6 nM, 84 nM and 53 nM.
The like results for `COc1cc2nn([C@H]3CC[C@]4(CC3)CC(=O)N(C)C4)cc2cc1C(=O)Nc1cnc2cccnn12` [Example 69, N-(Imidazo[1,2-b]pyridazin-3-yl)-6-methoxy-2-((5r,8r)-2-methyl-3-oxo-2-azaspiro[4.5]decan-8-yl)-2H-indazole-5-carboxamide] were, in that order, 0.5 nM, 15 nM and 22 nM.
On to `COc1cc2nn([C@H]3CC[C@]4(CC3)CC(=O)N(C)C4)cc2cc1C(=O)Nc1cnn2cccnc12` [Example 86, 6-methoxy-2-((5r,8r)-2-methyl-3-oxo-2-azaspiro[4.5]decan-8-yl)-N-(pyrazolo[1,5-a]pyrimidin-3-yl)-2H-indazole-5-carboxamide], for which the IC50 in assay [1] stood at 1.9 nM; in assay [2] (setting [4]), 31 nM; in assay [3] it was 36 nM.
The like results for `COc1cc2nn([C@H]3CC[C@H](O)C[C@@H]3C)cc2cc1C(=O)Nc1cnc2cccnn12` [Example 91, 2-((1S,2S,4S)-4-hydroxy-2-methylcyclohexyl)-N-(imidazo[1,2-b]pyridazin-3-yl)-6-methoxy-2H-indazole-5-carboxamide] were, in that order, 2.3 nM, 49 nM and 88 nM.
The like results for `COc1cc2nn([C@@H]3CC[C@](C)(O)C[C@H]3C)cc2cc1C(=O)Nc1cnc2cccnn12` [Example 92, 2-((1R,2R,4S)-4-hydroxy-2,4-dimethylcyclohexyl)-N-(imidazo[1,2-b]pyridazin-3-yl)-6-methoxy-2H-indazole-5-carboxamide] were, in that order, 1.6 nM, 28 nM and 30 nM.
On the same counts, the results for `COc1cc2nn([C@@H]3CC[C@@](C)(O)C[C@H]3C)cc2cc1C(=O)Nc1cnc2cccnn12` [Example 93, 2-((1R,2R,4R)-4-hydroxy-2,4-dimethylcyclohexyl)-N-(imidazo[1,2-b]pyridazin-3-yl)-6-methoxy-2H-indazole-5-carboxamide] are 0.4 nM, 30 nM and 8 nM.
